19 molecules from ChEMBL document CHEMBL1151073, “Substituted 1,3,5-triazines as cholesteryl ester transfer protein inhibitors” (Bioorg Med Chem Lett, 1996) can be followed below.

The first assay addresses T1, Cholesteryl ester transfer protein (Homo sapiens, UniProt P11597).
T1 sequence (P11597 whole entry): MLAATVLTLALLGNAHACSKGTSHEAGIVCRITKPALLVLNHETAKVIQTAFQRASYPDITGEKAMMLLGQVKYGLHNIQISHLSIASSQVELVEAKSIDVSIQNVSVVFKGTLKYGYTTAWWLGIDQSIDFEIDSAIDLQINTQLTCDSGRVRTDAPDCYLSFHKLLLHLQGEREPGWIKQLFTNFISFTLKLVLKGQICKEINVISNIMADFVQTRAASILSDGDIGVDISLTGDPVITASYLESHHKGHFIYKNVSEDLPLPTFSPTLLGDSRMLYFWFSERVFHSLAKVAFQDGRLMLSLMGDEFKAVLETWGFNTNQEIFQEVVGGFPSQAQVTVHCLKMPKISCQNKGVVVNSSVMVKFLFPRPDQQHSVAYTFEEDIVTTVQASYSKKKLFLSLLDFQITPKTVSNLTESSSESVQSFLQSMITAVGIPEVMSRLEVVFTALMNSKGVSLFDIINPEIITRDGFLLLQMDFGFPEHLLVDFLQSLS
In words: Inhibition of Cholesteryl ester transfer protein.
For orientation: IC50 means the point on the concentration scale where inhibition reaches its midpoint. Read a high IC50 as a need for much substance. With `Clc1ccc(N2CCN(c3nc(NCCc4ccccc4)nc(N4CCNCC4)n3)CC2)cc1`, the midpoint of inhibition, the IC50, lay at 45 µM. That is a double-digit micromolar value.
The molecule `Clc1ccc(N2CCN(c3nc(N/N=C/c4ccccc4)nc(N4CCNCC4)n3)CC2)cc1` displayed an IC50 of 10 µM. This IC50 lies about 4.5-fold lower than the previous one.
Still for that read-out and setting: as for `Clc1ccc(N2CCN(c3nc(C#Cc4ccccc4)nc(N4CCNCC4)n3)CC2)cc1`, the figure is 12 µM.
Regarding `Clc1ccc(N2CCN(c3nc(Cc4ccc5ccccc5c4)nc(N4CCNCC4)n3)CC2)cc1`, the IC50 came to 5 µM.
The same measure, in the same setting: in the case of `CN(CCc1ccccc1)c1nc(N2CCNCC2)nc(N2CCN(c3ccc(Cl)cc3)CC2)n1` it was 6 µM; in that of `Oc1ccc(CCNc2nc(N3CCNCC3)nc(N3CCN(c4ccc(Cl)cc4)CC3)n2)cc1O`, 21 µM; in that of `Clc1ccc(N2CCN(c3nc(-c4ccccc4)nc(N4CCNCC4)n3)CC2)cc1`, 11 µM.
With `COc1ccc(CCNc2nc(N3CCNCC3)nc(N3CCN(c4ccc(Cl)cc4)CC3)n2)cc1O`, the 50% inhibitory concentration (IC50) came to 16 µM.
On to `Clc1ccc(N2CCN(c3nc(Cc4ccccc4)nc(N4CCNCC4)n3)CC2)cc1`, for which the IC50 came to 9 µM.
Still for that read-out and setting: in the case of `Clc1ccc(N2CCN(c3nc(N4CCNCC4)nc(N4CCc5ccccc5C4)n3)CC2)cc1` it was 5 µM; in that of `CCCCc1nc(N2CCNCC2)nc(N2CCN(c3ccc(Cl)cc3)CC2)n1`, 11 µM; in that of `Clc1ccc(Cc2nc(N3CCNCC3)nc(N3CCN(c4ccc(Cl)cc4)CC3)n2)cc1`, 9 µM.

The next assay has as its target T2, Cholesteryl ester transfer protein (Homo sapiens) (UniProt P11597).
T2 sequence (whole entry): T1 sequence (P11597 whole entry)
In words: Compound was tested for inhibitory activity against Cholesteryl ester transfer protein at 50 uM.
The term inhibition denotes how much of the control response was suppressed. The molecule `Clc1ccc(N2CCN(c3nc(Cl)nc(N4CCNCC4)n3)CC2)cc1` yielded an inhibition of 37%.
Still for that read-out and setting: in the case of `C=Cc1nc(N2CCNCC2)nc(N2CCN(c3ccc(Cl)cc3)CC2)n1` it was 48%; in that of `Clc1ccc(N2CCN(c3ncnc(N4CCNCC4)n3)CC2)cc1`, 14%; in that of `CCCCOc1nc(N2CCNCC2)nc(N2CCN(c3ccc(Cl)cc3)CC2)n1`, 57%.
In turn, `Clc1ccc(N2CCN(c3nc(OCCc4ccccc4)nc(N4CCNCC4)n3)CC2)cc1` displayed an inhibition of 66%.
For `Oc1nc(N2CCNCC2)nc(N2CCN(c3ccc(Cl)cc3)CC2)n1`, the inhibition worked out at 11%.
Molecule `Clc1ccc(N2CCN(c3nc(NCc4ccccc4)nc(N4CCNCC4)n3)CC2)cc1` yielded an inhibition of 52%.
